How the values were obtained:
[1] = system: pro-inflammatory genes A20, CCL20, IL6, IL8, CXCL2, JUNB and IEX1; experiment: mRNA levels of pro-inflammatory genes under basal conditions, HeLa, RT-qPCR; format: cell-based, human; settings: HeLa cells, 2 hours, 50 μM SPI
Procedure: Cell culture—HEK293T, HeLa, MCF7, Jurkat and mouse embryonic fibroblasts (MEFs) cells were grown and maintained in Dulbecco's modified Eagle's medium supplemented with 10% fetal calf serum (Gibco) and 1% penicillin-streptomycin. To avoid NF-κB activity, HeLa cells were kept from reaching confluence and re-plated no more than 10 times following initial thawing. To induce NF-κB activity, cells were treated with […] recombinant human TNF-α (Peprotech) for the indicated times. STHdh Q111 and STHdh Q7 striatal cell lines (Coriell Institute for Medical Research) were grown in Dulbecco's modified Eagle's medium supplemented with 10% fetal calf serum (Gibco), 1% penicillin-streptomycin and 0.4 mg/ml G418 at 33° C. The cells were re-plated no more than 5-6 times, as recommended.
RNA analysis—Total RNA was extracted using Tri-reagent (Bio-Lab Chemicals) and Direct-Zol™ RNA MiniPrep kit (Zymo Research). Following, cDNA was synthesized from […] of total RNA using a High-Capacity cDNA Reverse Transcription Kit (ABI, Thermo Fisher Scientific). cDNA samples were analyzed by quantitative PCR (qPCR) in a ViiA 7 Real-Time PCR System using Fast qPCRBIO SYBR Green Mix (PCR Biosystems).
Thus, a subset of Spt5-responsive pro-inflammatory genes from the aforementioned studies and from others (Aida et al., 2006; Fujita et al., 2009), namely A20, CCL20, IL6, IL8, CXCL2, JUNB and IEX1, were selected and the effect of the identified SPIs on their expression under basal conditions and in response to NF-κB activation was tested (FIGS. 2A-C and 3A-C). Specifically, for analyzing expression under basal conditions, Hela cells were treated with vehicle (DMSO) or SPI for 2 hours and following RNA was extracted and analyzed by RT-qPCR.

[2] = system: replication-dependent histone genes; experiment: RNA-seq after 24-h treatment: replication-dependent histone genes; format: cell-based, human; parameters: HIST1H2AH level, RNA-seq / HIST1H2AI level, RNA-seq / HIST1H2AK level, RNA-seq / HIST1H2AL level, RNA-seq / HIST1H2BF level, RNA-seq / HIST1H3A level, RNA-seq / HIST1H3B level, RNA-seq / HIST1H3D level, RNA-seq: scale not given here; settings: SPI-21 24 h
Procedure: High-throughput sequencing of the total, labeled and Run-On transcripts (RNA-Seq and Gro-seq)—_The RNA-Seq libraries were prepared by the Genomics unit in The Nancy and Stephen Grand Israel National Center for Personalized Medicine (G-INCPM, Weizmann Institute of Science). Samples from 2-hour SPI treatment were prepared using in-house mRNA Seq protocol and polyA capturing and those from 24-hpur and 4sU treatments were prepared using the same protocol w/o PolyA capture (with random hexamers), and sequenced using an Illumina HiSeq 2500 system yielding about 30M SE reads of 61 bases. The GRO-seq RNA samples were reverse transcribed and amplified (15 cycles) using in-house mRNA Seq protocol w/o PolyA capture (with random hexamers) and sequenced in one lane using an Illumina HiSeq High Output (480 million reads, yielding more than 100M SE reads of 47 bases per sample). Each RNA-Seq analysis was carried out using two independent replicates.
RNA-Seq and GRO-seq Bioinformatics analysis—_For the analysis of the 24 h, 4sU and GRO-seq data, we used the RNA-Seq pipeline of UTAP (Kohen et al. 2019) to determine the differentially expressed genes. For the 2-hour data, reads were mapped to the H. sapiens GRCh38 reference genome using STAR (Dobin et al., 2013) and expression levels for each gene were quantified using htseq-count (Anders et al., 2015). Differentially expressed genes were identified using DESeq2 (Love et al., 2014). […] The reads coverage was calculated using bed files containing the desired genomic regions and orientation (awk command) and the bedtools coverage tool (Quinlan et al., 2010).
Since the RNA-seq following treatment with SPI-21 detects only polyadenylated transcripts and the treatment was effected for 2 hours, during which only a fraction of cells is in S-phase, an effect on histone genes was not found. Thus, to investigate further the regulation of histone genes by Spt5 using the identified SPIs, cells were treated for 24 hours with SPI-21 or SPI-18, to allow all cells to pass S-phase at least once. Following, mRNA was extracted and cDNA was prepared using random hexamers and the levels of 4 histone genes were determined. […] Spt5 requirement for expression of histone genes cannot be explained by a positive effect on elongation or mRNA processing since histone genes are very short and are intron-less. […] To resolve the discrepancy between the effect of Spt5 inhibition on steady-state levels and synthesis rate, the possibility that Spt5 is required for the processing of histone mRNAs was considered. In addition to the conserved stem-loop, histone genes have a canonical polyadenylation signal downstream of the stem-loop structure (FIG. 5B). It was therefore considered that Spt5 controls the choice between 3′ end processing via the stem-loop pathway or the polyadenylation pathway of histone pre-mRNAs. To this end, cDNA prepared by random hexamer and Poly-T the ratio between total and poly-A tailed histone genes was determined. […] Thus, the reduction in the histone gene expression upon Spt5 inhibition may be associated, at least in part, to a defect in 3′ end processing.

Structure (SMILES): COc1ccc(C=CC(=O)c2cc(O)ccc2O)cc1 [SPI-21]
- Up-regulation of pro-inflammatory genes under basal conditions (i.e. inhibiting proximal promoter pausing of pro-inflammatory genes induced by Spt5) [1]: ++ (++ >3)
- HIST1H1B level, RNA-seq [2]: 0.4
- HIST1H1E level, RNA-seq [2]: 0.5
- HIST1H2AG level, RNA-seq [2]: 0.4
- HIST1H2AH level, RNA-seq [2]: 0.5
- HIST1H2AI level, RNA-seq [2]: 0.5
- HIST1H2AK level, RNA-seq [2]: 0.6
- HIST1H2AL level, RNA-seq [2]: 0.5
- HIST1H2BF level, RNA-seq [2]: 0.5
- HIST1H3A level, RNA-seq [2]: 0.4
- HIST1H3B level, RNA-seq [2]: 0.5
- HIST1H3D level, RNA-seq [2]: 0.4
- HIST1H3F level, RNA-seq [2]: 0.5
- HIST1H3G level, RNA-seq [2]: 0.5
- HIST1H4A level, RNA-seq [2]: 0.5
- HIST1H4B level, RNA-seq [2]: 0.5
- HIST1H4C level, RNA-seq [2]: 0.7
- HIST1H4D level, RNA-seq [2]: 0.5
- HIST1H4H level, RNA-seq [2]: 0.7
- HIST2H2AC level, RNA-seq [2]: 0.5
- HIST2H3D level, RNA-seq [2]: 0.3
